Test results published in patent US5736380A, “Maltose-trehalose converting enzyme, and preparation and uses thereof” (Kabushiki Kaisha Hayashibara Seibutsu Kagaku Kenkyujo, priority 1993, dated 1998).
Entries after “also recorded” stand apart in the source; their conditions may differ. Structures can show the parent of a compound that is named as a salt.

How the values were obtained:
[1] = target: T1, maltose-trehalose converting enzyme derived from Thermus aquaticus (ATCC 33923) (Thermus thermophilus, UniProt O06458); assay: Inhibition of enzyme activity; assay type: biochemical; conditions: one mM Cu^++ or Hg^++, 50 mM Tris-HCl buffer
T1 construct: The culture obtained in Experiment 15 was centrifuged to obtain an about 0.28 kg of wet cells; endogenous in cells; host or cells: Thermus aquaticus (ATCC 33923), enzyme purified from the disrupted wild-type cells
T1 sequence (O06458 1-963): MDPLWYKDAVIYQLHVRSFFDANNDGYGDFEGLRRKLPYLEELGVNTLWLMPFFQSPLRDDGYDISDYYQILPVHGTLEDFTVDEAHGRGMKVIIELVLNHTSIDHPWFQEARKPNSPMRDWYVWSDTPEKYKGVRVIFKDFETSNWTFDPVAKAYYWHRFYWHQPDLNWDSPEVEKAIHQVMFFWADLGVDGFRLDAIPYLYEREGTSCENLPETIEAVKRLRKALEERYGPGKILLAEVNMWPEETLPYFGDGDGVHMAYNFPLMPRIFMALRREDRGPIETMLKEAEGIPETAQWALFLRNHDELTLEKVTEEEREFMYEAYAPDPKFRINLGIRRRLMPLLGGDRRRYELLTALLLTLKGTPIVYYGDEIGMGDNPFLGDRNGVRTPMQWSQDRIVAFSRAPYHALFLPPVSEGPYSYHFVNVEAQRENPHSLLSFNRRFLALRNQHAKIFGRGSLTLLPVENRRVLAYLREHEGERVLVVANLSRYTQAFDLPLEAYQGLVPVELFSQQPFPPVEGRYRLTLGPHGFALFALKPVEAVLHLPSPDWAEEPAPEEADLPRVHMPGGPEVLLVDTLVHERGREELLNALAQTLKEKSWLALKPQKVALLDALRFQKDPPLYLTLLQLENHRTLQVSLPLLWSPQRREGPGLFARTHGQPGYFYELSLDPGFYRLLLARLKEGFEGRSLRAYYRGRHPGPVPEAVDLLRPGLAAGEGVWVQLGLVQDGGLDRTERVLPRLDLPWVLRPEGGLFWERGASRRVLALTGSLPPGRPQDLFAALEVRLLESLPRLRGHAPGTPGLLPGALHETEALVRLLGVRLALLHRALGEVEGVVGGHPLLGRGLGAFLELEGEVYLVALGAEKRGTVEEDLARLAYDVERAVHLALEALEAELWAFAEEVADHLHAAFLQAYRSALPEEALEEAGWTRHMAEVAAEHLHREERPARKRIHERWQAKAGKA
Experimental: (§1) The activity of the present maltose-trehalose converting enzyme is assayed as follows: One ml of an enzyme solution is added to one ml of 20 w/v % maltose as a substrate in 10 mM phosphate buffer (pH 7.0), and the mixture solution is incubated at 25° C., 35° C. or 60° C. for 60 min, followed by the heating the solution at 100° C. for 10 min to suspend the enzymatic reaction. To the resultant reaction mixture is precisely diluted by 11-fold with 50 mM phosphate buffer (pH 7.5), and 0.4 ml of the diluted solution is admixed with 0.1 ml of a trehalase solution having one unit/ml of trehalase. The resultant solution is incubated at 45° C. for 120 min, followed by determining the amount of glucose by the glucose-oxidase method. As a control, by using trehalase and an enzyme solution, which were preheated at 100° C. for 10 min to inactivate the enzyme, the activity of the enzyme solution is assayed similarly as above. With the above assay, the content of trehalose, formed by the present maltose-trehalose converting enzyme, is determined based on the amount of glucose formed, and one unit activity of the enzyme is defined as the amount of enzyme which forms one μmole of trehalose per minute. As regards to the reaction temperature, it is set to 25° C. for the enzyme of a microorganism of the genus Pimelobacter; 35° C. for that of the genus Pseudomonas; and 60° C. for that of the genus Thermus.
Effects of temperature and pH on the activity of the present enzyme were studied in accordance with the method as used for assaying the enzyme activity. […] The thermal stability of the enzyme was determined by incubating it in 50 mM phosphate buffers (pH 7.0) in test tubes at different temperatures for 60 min, cooling the test tubes with cold water, and assaying the residual enzyme activity in each buffer. The pH stability of the enzyme was determined by incubating it in 50 mM phosphate buffers having different pHs at 60° C. for 60 min, adjusting the resultant buffers to pH 7.0, and assaying the residual enzyme activity in each buffer.

[2] = system: maltose-trehalose converting enzyme; assay: Inhibition of activity of the present enzyme; assay type: biochemical, microorganisms; conditions: one mM Cu^++, Hg^++ and Tris-HCl buffer
Experimental: as §1, with “The resultant solution is incubated at 45° C. for 120 min, followed by determining the amount of glucose by the glucose-oxidase method.” left out, “With the above assay, the content of trehalose, formed by the present maltose-trehalose converting enzyme, is determined based on the amount of glucose formed, and one unit activity of the enzyme is defined as the amount of enzyme which forms one μmole of trehalose per minute.” left out

| SMILES | Inhibition of activity [1] | Inhibition of activity [2] |
| --- | --- | --- |
| [Cu+2] [Cu^++] | inhibited; also recorded: inhibitory | inhibited |
| [Hg+2] [Hg^++] | inhibited; also recorded: inhibitory | inhibited |
| NC(CO)(CO)CO [Tris-HCl buffer] | inhibited; also recorded: inhibitory | inhibited |
